9 compounds from patent US12139508B2, “Steroid derivative regulators, method for preparing the same, and uses thereof” (JIANGSU HANSOH PHARMACEUTICAL GROUP CO., LTD., priority 2018, dated 2024) can be followed below.

pIC50: −log10 of the molar value. Read-outs that look alike come from different tables or passages of the source.

In one data set the target is GABA-A receptor. In words: 35S-TBPS binding assay (GABAA receptor binding ability test). Details: species or system Sprague-Dawley rat. The following applies: rat cerebral cortex cell membrane, 5 μM GABA, 2 nM 35S-TBPS; read-out: 35S-TBPS bindng test: IC50 on inhibiting the TBPS binding activity. How it is done: 1.2 Experimental Procedures 1.2.1 Extraction of Cerebral Cortex Cell Membrane:
1. The cerebral cortex of male Sprague-Dawley rat was isolated.
2. A pre-chilled 0.32 M sucrose solution (one tablet of protease inhibitor was added per 100 ml) was added to the cerebral cortex (the volume of sucrose solution was 10 times the volume of the cerebral cortex). The mixture was crushed with a 50 mL glass tissue homogenizer in batches and mixed well.
3. The mixture was centrifuged at 1500 g, 4° C. for 10 minutes, and the supernatant was collected.
4. The mixture was centrifuged at 20000 g, 4° C. for 30 minutes, and the supernatant was discarded.
5. The precipitate was resuspended with the pre-chilled phosphate buffer saline (PBS) (one tablet of protease inhibitor was added per 100 ml). An average of 4 ml of PBS was added per rat, and the mixture was mixed well by a glass tissue homogenizer.
6. The mixture was centrifuged at 10000 g, 4° C. for 10 minutes, and the supernatant was discarded.
7. Steps 5 and 6 were repeated three times.
8. Finally, the precipitate was resuspended with 4 volumes of PBS. The resulting solution was dispensed, frozen in liquid nitrogen, and stored at −80° C.
9. The protein concentration was measured by the bicinchoninic acid (BCA) method.
1.2.2 ^35S-TBPS Binding Assay
1. 230 μL of PBS was added to each well of a well plate with 1.1 ml volume.
2. 60 μL of the cerebral cortex cell membrane (5 μg/μL) solution was added to each well, and the mixture was mixed well.
3. The test compound (3 μL per well) was added, and the plate was incubated at 25° C. for 5 minutes. The DMSO concentration was 1%. The initial compound concentration was 1 μM, and a 3-fold dilution in gradient was carried out to obtain a total of 8 gradients and 2 replicates. 1% DMSO was used as a negative control, and 10 μM P026-2 was used as a positive control.
4. GABA was added at a final concentration of 5 μM, and incubated at 25° C. for 5 minutes. 1 mM GABA solution was formulated, and 1.5 μL of the solution was added to each well.
5. ^35S-TBPS was added at a final concentration of 2 nM. The concentration of isotope mother solution was 9.7 μM. After dilution with PBS for 100 times, 6 μL of the diluted isotope solution was added to each well.
6. The plate was incubated at 4° C. for 20 hours.
7. The FilterMate GF/C plate was pre-treated with 0.5% PEI, and incubated at 4° C. for 1 hour.
8. The FilterMate GF/C plate was washed with Universal Harvester twice, 50 ml PBS each time.
9. The reaction solution was transferred to the GF/C plate, and each well was washed 4 times with 900 μL of PBS.
10. The washed GF/C plate was placed at 55° C. and dried for 10 minutes.
11. 40 μL of scintillation solution was added to each well, and the CPM value was read with TopCount.
1.2.3 Experimental Data Processing Method:
In the experiment, the CPM (counts per minute) value was read with TopCount. According to the readings of the High control (DMSO) and the Low control ([…] of the positive compound) experimental groups, the […] inhibition was calculated based on the following formula: % Inhibition=100×(CPMHigh control−CPMSample)/(CPMHigh control−CPMLow control)
The IC50 of the compound was calculated according to the following 4-parameter nonlinear logic formula: Y=Bottom+(Top−Bottom)/(1+10^((Log IC50−X)*Hill Slope)),
wherein: • X represents the log of compound concentration, • Y represents the 0 Inhibition.
The effect of the compound of the present invention on the TBPS binding activity was determined by the above test, and the measured IC50 values are shown in Table 1.

Data set [1] can be described thus: Pharmacokinetic assay in Balb/c mice (plasma and brain tissue). The note with it: mouse, po, 5 mg/kg p.o., male Balb/c mice; for AUC(0-t): read-out: Area under curve AUC0-t; for AUC(0-inf): read-out: Area under curve AUC0-∞; for half-life: read-out: Half-life t1/2 (converted); for MRT: read-out: Mean residence time MRT; for Tmax: read-out: Peak time tmax; for Cmax: read-out: Plasma concentration Cmax. Format: in vivo. How it is done: Balb/c mice were used as test animals. The pharmacokinetic behavior in mice (plasma and brain tissue) of the compounds of Examples 2, 3, 5, 6, 9, 13, 59, 60, 61, 63, 71-74, 81, 103, 130, 134, 135, 137, 138, 140, 141, 143, 145 and 146 orally administered at a dose of 5 mg/kg was studied.
Each group had 24 male Balb/c mice. After an overnight fast, Balb/c mice were administered p.o. with the test compound at an administration dose of 5 mg/kg and an administration volume of 10 mL/kg.
0.2 ml of blood was taken from the heart before administration and at 0, 0.5, 1, 2, 4, 6, 8 and 24 hours after administration. The samples were stored in EDTA-K2 tubes, and centrifuged for 6 minutes at 4° C., 6000 rpm to separate the plasma. The plasma samples were stored at −80° C. The mice were sacrificed with CO2, and the whole brain tissue was taken out, weighed, placed in a 2 mL centrifuge tube and stored at −80° C.
1) 160 μL of acetonitrile was added to 40 μL of the plasma sample for precipitation, and then the mixture was centrifuged for 5-20 minutes at 3500×g.
2) 90 μL of acetonitrile containing the internal standard (100 ng/mL) was added to 30 μL of the plasma and brain homogenate samples for precipitation, and then the mixture was centrifuged for 8 minutes at 13000 rpm.
3) 70 μL of the treated supernatant was taken and added to 70 μL of water, and mixed by vortex for 10 minutes. 20 μL of the mixture was taken to analyze the concentration of the test compound by LC/MS/MS. LC/MS/MS analysis instrument: AB Sciex API 4000 Qtrap.
• Liquid chromatography condition: Shimadzu LC-20AD pump. • Chromatographic column: Agilent ZORBAX™ XDB-C18 (50×2.1 mm, 3.5 μm) (note: Aglient ZORBAX™ is a kind of column used in the reverse HPLC); • Mobile phase: Eluent A was 0.10% formic acid in water, and Eluent B was acetonitrile. • Flow rate: 0.4 mL/min • Elution time: 0-4.0 minutes, the eluent is as follows:
The main parameters of pharmacokinetics were calculated by WinNonlin 6.1.

On to `CCOC(=O)c1cnn(CC(=O)[C@H]2[C@H]3C[C@H]3[C@H]3[C@@H]4CC[C@@H]5C[C@](C)(O)CC[C@@H]5[C@H]4CC[C@@]32C)c1` [Example 51, Ethyl 1-(2-((2R,4aS,4bR,6aS,7S,7aS,8aR,8bR,8cR,10aR)-2-hydroxy-2,6a-dimethyloctadecahydrocyclopropa[4,5]cyclopenta[1,2-a]phenanthren-7-yl)-2-oxoethyl)-1H-pyrazole-4-carboxylate], for which the pIC50 at GABA-A receptor was 8.30.
With `C[C@@]1(O)CC[C@H]2[C@H](CC[C@@H]3[C@@H]2CC[C@@]2(C)[C@H]3[C@@H]3C[C@@H]3[C@@H]2C(=O)Cn2cc(Cl)cn2)C1` [Example 18, 2-(4-Chloro-1H-pyrazol-1-yl)-1-((2R,4aS,4bR,6aS,7S,7aS,8aR,8bR,8cR,10aR)-2-hydroxy-2,6a-dimethyloctadecahydrocyclopropa[4,5]cyclopenta[1,2-a]phenanthren-7-yl)ethan-1-one], the pIC50 at GABA-A receptor is 8.19.
For the compound `C[C@@H]1C[C@H](C(=O)COc2cnc(C(F)(F)F)nc2)[C@@]2(C)CC[C@H]3[C@@H](CC[C@@H]4C[C@](C)(O)CC[C@@H]43)[C@H]12` [Example 150, 1-((3R,5R,8R,9R,10S,13S,14S,15R,17S)-3-Hydroxy-3,13,15-trimethylhexadecahydro-1H-cyclopenta[a]phenanthren-17-yl)-2-((2-(trifluoromethyl)pyrimidin-5-yl)oxy)ethan-1-one], the negative-log IC50 (pIC50) on GABA-A receptor is 8.06.
Regarding `C[C@@]1(O)CC[C@H]2[C@H](CC[C@@H]3[C@@H]2CC[C@@]2(C)[C@H]3[C@@H]3C[C@@H]3[C@@H]2C(=O)Cn2cc(C#N)c(C3CC3)n2)C1` [Example 33, 3-Cyclopropyl-1-(2-((2R,4aS,4bR,6aS,7S,7aS,8aR,8bR,8cR,10aR)-2-hydroxy-2,6a-dimethyloctadecahydrocyclopropa[4,5]cyclopenta[1,2-a]phenanthren-7-yl)-2-oxoethyl)-1H-pyrazole-4-carbonitrile], the pIC50 on GABA-A receptor is 7.74.
For `Cc1nnn(CC(=O)[C@H]2C[C@@H](C)[C@H]3[C@@H]4CC[C@@H]5C[C@](C)(O)CC[C@@H]5[C@H]4CC[C@@]32C)n1` [Example 62, 1-((3R,5R,8R,9R,10S,13S,14S,15R,17S)-3-Hydroxy-3,13,15-trimethylhexadecahydro-1H-cyclopenta[a]phenanthren-17-yl)-2-(5-methyl-2H-tetrazol-2-yl)ethan-1-one], on GABA-A receptor, the pIC50 was 8.27.
`C[C@@]1(O)CC[C@H]2[C@H](CC[C@@H]3[C@@H]2CC[C@@]2(C)[C@H]3[C@@H]3C[C@@H]3[C@@H]2C(=O)Cn2cc(F)cn2)C1` [Example 46, 2-(4-Fluoro-1H-pyrazol-1-yl)-1-((2R,4aS,4bR,6aS,7S,7aS,8aR,8bR,8cR,10aR)-2-hydroxy-2,6a-dimethyloctadecahydrocyclopropa[4,5]cyclopenta[1,2-a]phenanthren-7-yl)ethan-1-one]: at GABA-A receptor, the pIC50 was 7.54.
Same read-out and setting: next, `C[C@@]1(O)CC[C@H]2[C@H](CC[C@@H]3[C@@H]2CC[C@]2(C)[C@@H](C(=O)COCC4(C#N)CC4)CC[C@@H]32)C1` [Example 166, 1-((2-((3R,5R,8R,9R,10S,13S,14S,17S)-3-Hydroxy-3,13-dimethylhexadecahydro-1H-cyclopenta[a]phenanthren-17-yl)-2-oxoethoxy)methyl)cyclopropane-1-carbonitrile]: 7.42.
In the case of `C[C@@]1(O)CC[C@H]2[C@H](CC[C@@H]3[C@@H]2CC[C@@]2(C)[C@H]3[C@@H]3C[C@@H]3[C@@H]2C(=O)Cn2cc([N+](=O)[O-])cn2)C1` [Example 103, 1-((2R,4aS,4bR,6aS,7S,7aS,8aR,8bR,8cR,10aR)-2-Hydroxy-2,6a-dimethyloctadecahydrocyclopropa[4,5]cyclopenta[1,2-a]phenanthren-7-yl)-2-(4-nitro-1H-pyrazol-1-yl)ethan-1-one], in data set [1] (brain tissue), the AUC(0-t) turned out to be 1680 ng·h/mL, the AUC(0-inf) turned out to be 1710 ng·h/mL, the half-life was 67.2 min and the MRT is 2.07 h. For the same compound, in data set [1] (brain tissue), the time of peak concentration (Tmax) was determined as 1 h and the Cmax is 626 ng/mL. Moreover, in data set [1] (plasma), the AUC(0-t) stood at 1030 ng·h/mL, the AUC(0-inf) was determined as 1060 ng·h/mL, the half-life was 71.4 min and the MRT was 2.12 h. Moreover, in data set [1] (plasma), the Tmax turned out to be 1 h and the Cmax came to 386 ng/mL.
As to `CC[C@@H]1C[C@H](C(=O)Cn2cc(C#N)cn2)[C@@]2(C)CC[C@H]3[C@@H](CC[C@@H]4C[C@](C)(O)CC[C@@H]43)[C@H]12` [Example 81, 1-(2-((3R,5R,8R,9R,10S,13S,14S,15R,17S)-15-Ethyl-3-hydroxy-3,13-dimethylhexadecahydro-1H-cyclopenta[a]phenanthren-17-yl)-2-oxoethyl)-1H-pyrazole-4-carbonitrile], in data set [1] (brain tissue), the AUC(0-t) amounted to 1440 ng·h/mL, the AUC(0-inf) was found to be 2230 ng·h/mL, the half-life is 335 min and the MRT was 7.97 h. In addition, in data set [1] (brain tissue), the Tmax worked out at 1 h and the Cmax amounted to 296 ng/mL. Moreover, in data set [1] (plasma), the AUC(0-t) came to 4640 ng·h/mL, the AUC(0-inf) came to 5920 ng·h/mL, the half-life was 158 min and the MRT was determined as 4.96 h. Besides, in data set [1] (plasma), the Tmax was 1 h and the Cmax turned out to be 1150 ng/mL.
